Tests used:
[1] = system: Principal Bile Acids in Jejunum; assay: Bile acid composition of jejunum after oral administration (GC-MS); type: in vivo, Sprague-Dawley rats; conditions: oral gavage 250 mg/day, 4 days, mean ± SEM; for UDCA mass in jejunum: 24 hours after final dose
Protocol: (§1) Male Sprague-Dawley rats (Harlan Sprague-Dawley, Inc., Indianapolis, Ind.), weighing 210-290 g, were maintained on a 12-hour light-dark cycle and fed standard laboratory chow ad libitum for 3 days. The animals were then transferred to metabolic cages in which they were housed individually and fed the same diet. UDCA, UDCA 3-sulfate, UDCA 7-sulfate, and UDCA 3,7-disulfate were administered by gavage at a dose of 250 mg/day for 4 consecutive days. Each group comprised 3-6 rats. Body weights of the animals were measured each day. On day 5, the animals were killed by exsanguination under ether anesthesia. Plasma was collected and frozen at -20° C. The liver was removed, rinsed in normal saline, and flash-frozen in liquid nitrogen. Urine and feces were collected every 24 hours and frozen at -20° C. All animals received humane care in compliance with the "Guide for the Care and Use of Laboratory Animals" prepared by the National Academy of Sciences (National Institutes of Health publication no. 86-23, revised in 1985).
Intestinal contents were weighed and dissected into small pieces. In each group, feces (100 mg) from all animals were pooled on day 4 of the study and then ground into a fine paste. All samples were sonicated and sequentially refluxed in 80% methanol for 2 hours and chloroform/methanol (1:1) for 1 hour. Samples were taken to dryness, and the dried extracts were resuspended in 80% methanol (20 mL). Fractions of the methanolic extract (1/40 of intestinal contents and 1/20 of feces samples) were removed and the internal standard nordeoxycholic acid (10 μg) was added. This extract was diluted with 0.01 mol/L acetic acid (20 mL) and passed first through a column of Lipidex 1000 (bed size, 4×1 cm; Packard Instrument Co., Groningen, The Netherlands) and then through a Bond-Elut C18, cartridge (Analytichem, Harbor City, Calif.). Bile acids were recovered by elution of the Lipidex 1000 column and the Bond-Elut cartridge with methanol (20 mL and 5 mL, respectively), and the combined extracts were taken to dryness. Unconjugated bile acids were isolated and separated from neutral sterol and conjugated bile acids by lipophilic anion exchange chromatography on diethylaminohydroxypropyl Sephadex LH-20 (Lipidex-DEAP; Package Instrument Co.). Recovery of unconjugated bile acids was achieved by elution with 0.1 mol/L acetic acid in 72% ethanol (7 mL) followed by evaporation of the solvents. Total conjugated bile acids were recovered with 9 mL of 0.3 mol/L acetic acid in 72% ethanol, pH 9.6. Salts were removed by passage through a Bond-Elut C18 cartridge after addition of nordeoxycholic acid (10 μg), and conjugated bile acids were recovered by elution with 5 mL of methanol. Solvolysis was performed in a mixture of methanol (1 mL), distilled tetrahydrofuran (9 mL), and 1 mol/L trifluoracetic acid in dioxane (0.1 mL) and heated to 45° C for 2 hours. After solvolysis, unconjugated bile acids were isolated by chromatography on Lipidex-DEAP. Methyl ester derivatives were prepared by dissolving the sample in methanol (0.3 mL) and reacting with 2.7 mL of freshly distilled ethereal diazomethane. After evaporation of the reagents, the methyl ester derivatives were converted to trimethylsilyl ethers by the addition of […] of Tri-Sil reagent (Pierce Chemicals, Rockford, Ill.). A column of Lipidex 5000 (Packard Instrument Co.) was used to remove derivatizing reagents and to purify the sample.
Samples of liver (100 mg) were ground to a fine paste, and bile acids were extracted by reflux and passage through a column of Lipidex 1000 as described above for intestinal contents and feces. Group separation of bile acids, according to their mode of conjugation was achieved by lipophilic anion-exchange chromatography. […]

[2] = system: Principal Bile Acids in Liver; assay: Bile acid composition of liver tissue after oral administration (GC-MS); type: in vivo, Sprague-Dawley rats
Protocol: as §1
Samples of liver (100 mg) were ground to a fine paste, and bile acids were extracted by reflux and passage through a column of Lipidex 1000 as described above for intestinal contents and feces. Group separation of bile acids, according to their mode of conjugation was achieved by lipophilic anion-exchange chromatography. Extracts from each animal were pooled, and bile acids and their conjugates were separated using Lipidex-DEAP and stepwise elution of the gel bed with the following buffers: 0.1 mol/L acetic acid in 72% ethanol (unconjugated bile acids); 0.3 mol/L acetic acid in 72% ethanol, pH 5.0 (glycine conjugates); 0.15 mol/L acetic acid in 72% ethanol, pH 6.5 (taurine conjugates); and 0.3 mol/L acetic acid in 72% ethanol, pH 9.6 (sulfate conjugates). After evaporation of the buffers, sulfated bile acids were solvolyzed, whereas amidated conjugates were hydrolyzed with 50 U of cholylglycine hydrolase (Sigma Chemical Co.) in 2.5 mL of 0.2 mol/L phosphate buffer, pH 5.6, at 37° C. overnight. The resulting unconjugated bile acids were isolated on Lipidex-DEAP, and the methyl ester-trimethylsilyl ether derivatives were prepared as described above.
GC-MS analysis was performed using a Finnigan 4635 mass spectrometer (Finnigan Inc., San Jose, Calif.) that housed an identical gas chromatography column operated under the same conditions. Electron ionization (70 eV) mass spectra were recorded over the mass range of 50-800 daltons by repetitive scanning of the eluting components. Identification of bile acids was made on the basis of the gas chromatography retention index relative to a homologous series of n-alkanes, referred to as the methylene unit value, and the mass spectrum compared with authentic standards. Quantification of bile acids was achieved using gas chromatography by comparing the peak height response of the individual bile acids with the peak height response obtained from the internal standard.
Data are expressed as mean±SEM or as mean values of all animals when extracts were pooled before analysis. Results from different groups were compared using paired and unpaired two-tailed Student's t-test. P values of <0.05 were considered statistically significant.

## C[C@H](CCC(=O)O)[C@H]1CC[C@H]2[C@@H]3[C@@H](OS(=O)(=O)O)C[C@@H]4C[C@H](OS(=O)(=O)O)CC[C@]4(C)[C@H]3CC[C@]12C [UDCA-DS, ursodeoxycholic acid 3,7-disulfate]
[1]; listed as UDCA 3,7-SULFATE
  UDCA mass in jejunum: 0.21 mg
[1]; listed as UDCA 3,7-disulfate
  UDCA mass in jejunum: 0.21 ± 0.07 mg
[1]
  Chenodeoxycholic acid mass in jejunum: 0.12 mg
  Cholic acid mass in jejunum: 6.78 mg
  Cholic acid percent of jejunal bile acids: 66.0%
  Deoxycholic acid mass in jejunum: 0.5 mg
  Deoxycholic acid percent of jejunal bile acids: 5.2%
  Lithocholic acid percent of jejunal bile acids: 0%
  Total bile acid mass in jejunum: 10.24 mg
  UDCA percent of jejunal bile acids: 2.0%
  Δ^22-UDCA mass in jejunum: 0.21 mg
  Δ^22-UDCA percent of jejunal bile acids: 2.1%
  Δ^22-β-Muricholic acid mass in jejunum: 0.34 mg
  Δ^22-ω-Muricholic acid mass in jejunum: 0.12 mg
  β-Muricholic acid mass in jejunum: 1.70 mg
  ω-Muricholic acid mass in jejunum: 0.24 mg
[2]; oral gavage 250 mg/day, 4 days
  Chenodeoxycholic acid concentration in liver: 0.7 nmol/g
  Chenodeoxycholic acid percent of hepatic bile acids: 0.2%
  Cholic acid concentration in liver: 163.2 nmol/g
  Cholic acid percent of hepatic bile acids: 57.7%
  Deoxycholic acid concentration in liver: 17.3 nmol/g
  Deoxycholic acid percent of hepatic bile acids: 6.1%
  Lithocholic acid concentration in liver: 2.2 nmol/g
  Lithocholic acid percent of hepatic bile acids: 0.8%
  Total bile acid concentration in liver: 282.7 nmol/g
  UDCA percent of hepatic bile acids: 1.7%
  Δ^22-UDCA concentration in liver: 5.8 nmol/g
  Δ^22-UDCA percent of hepatic bile acids: 2.0%
  Δ^22-β-Muricholic acid concentration in liver: 23.0 nmol/g
  Δ^22-β-Muricholic acid percent of hepatic bile acids: 8.1%
  Δ^22-ω-Muricholic acid concentration in liver: 4.0 nmol/g
  Δ^22-ω-Muricholic acid percent of hepatic bile acids: 1.4%
  α-Muricholic acid concentration in liver: 6.5 nmol/g
  α-Muricholic acid percent of hepatic bile acids: 2.3%
  β-Muricholic acid concentration in liver: 50.1 nmol/g
  β-Muricholic acid percent of hepatic bile acids: 17.7%
  ω-Muricholic acid concentration in liver: 5.0 nmol/g
  ω-Muricholic acid percent of hepatic bile acids: 1.8%
[2]; oral, vs control
  Hepatic UDCA concentration change (in words): low compared with the control animals

— patent publication US5763435A, “Sulfate conjugates of ursodeoxycholic acid, and their beneficial use in inflammatory disorders” (priority 1995, dated 1998)
